According to patent US8377955B2, “Branched 3- and 6-substituted quinolines as CGRP receptors antagonists” (Merck, Sharp & Dohme, Corp., priority 2008, dated 2013):
Like-named read-outs stand apart in the source and are kept apart here. No end group written: not given here.

What was measured:
Human CGRP receptor = biological target: T1, Human CGRP receptor (Homo sapiens, UniProt O60894+Q16602); test: Human CGRP receptor binding (125I-CGRP displacement)
T1 construct: expressed in transfected cells; membranes
Description: NATIVE RECEPTOR BINDING ASSAY: The binding of ^125I-CGRP to receptors in SK-N-MC cell membranes was carried out essentially as described (Edvinsson et al. (2001) Eur. J. Pharmacol. 415, 39-44). Briefly, membranes (25 μg) were incubated in 1 mL of binding buffer [10 mM HEPES, pH 7.4, 5 mM MgCl2 and 0.2% bovine serum albumin (BSA)] containing 10 pM ^125I-CGRP and antagonist. After incubation at room temperature for 3 h, the assay was terminated by filtration through GFB glass fibre filter plates (PerkinElmer) that had been blocked with 0.5% polyethyleneimine for 3 h. The filters were washed three times with ice-cold assay buffer (10 mM HEPES, pH 7.4 and 5 mM MgCl2), then the plates were air dried. Scintillation fluid (50 μL) was added and the radioactivity was counted on a Topcount (Packard Instrument). Data analysis was carried out by using Prism and the Ki was determined by using the Cheng-Prusoff equation (Cheng & Prusoff (1973) Biochem. Pharmacol. 22, 3099-3108).
RECOMBINANT RECEPTOR: Human CL receptor (Genbank accession number L76380) was subcloned into the expression vector pIREShyg2 (BD Biosciences Clontech) as a 5′NheI and 3′ PmeI fragment. Human RAMP1 (Genbank accession number AJ001014) was subcloned into the expression vector pIRESpuro2 (BD Biosciences Clontech) as a 5′NheI and 3′NotI fragment. HEK 293 cells (human embryonic kidney cells; ATCC #CRL-1573) were cultured in DMEM with 4.5 g/L glucose, 1 mM sodium pyruvate and 2 mM glutamine supplemented with 10% fetal bovine serum […], 100 units/mL penicillin and 100 μg/mL streptomycin, and maintained at 37° C. and 95% humidity. Cells were subcultured by treatment with 0.25% trypsin with 0.1% EDTA in HBSS. Stable cell line generation was accomplished by co-transfecting 10 μg of DNA with 30 μg Lipofectamine 2000 (Invitrogen) in 75 cm^2 flasks. CL receptor and RAMP1 expression constructs were co-transfected in equal amounts. Twenty-four hours after transfection the cells were diluted and selective medium (growth medium+300 μg/mL hygromycin and 1 μg/mL puromycin) was added the following day. A clonal cell line was generated by single cell deposition utilizing a FACS Vantage SE (Becton Dickinson). Growth medium was adjusted to 150 μg/mL hygromycin and 0.5 μg/mL puromycin for cell propagation.
RECOMBINANT RECEPTOR BINDING ASSAY: Cells expressing recombinant human CL receptor/RAMP1 were washed with PBS and harvested in harvest buffer containing 50 mM HEPES, 1 mM EDTA and Complete protease inhibitors (Roche). The cell suspension was disrupted with a laboratory homogenizer and centrifuged at 48,000 g to isolate membranes. The pellets were resuspended in harvest buffer plus 250 mM sucrose and stored at −70° C. For binding assays, 20 μg of membranes were incubated in 1 ml binding buffer (10 mM HEPES, pH 7.4, 5 mM MgCl2, and 0.2% BSA) for 3 hours at room temperature containing 10 pM ^125I-hCGRP (GE Healthcare) and antagonist. The assay was terminated by filtration through 96-well GFB glass fiber filter plates (PerkinElmer) that had been blocked with 0.05% polyethyleneimine. […]
[formula] Where Y is observed CPM bound, Ymax is total bound counts, Ymin is non specific bound counts, (Ymax−Ymin) is specific bound counts, % Imax is the maximum percent inhibition, % I min is the minimum percent inhibition, radiolabel is the probe, and the Kd is the apparent dissociation constant for the radioligand for the receptor as determined by Hot saturation experiments.

[1] = system: acute attacks of migraine; details: clinical trials (Olesen et al. 2004); cited from earlier work
[2] = system: headache induced by CGRP infusion; details: control group (Petersen et al. 2005); cited from earlier work
facial blood flow [3] = details: marmoset, electrical stimulation of the trigeminal ganglion (Dodds et al. 2000); cited from earlier work
middle meningeal artery = details: rats, electrical stimulation of the dura mater, prior administration (Williamson et al. 1997); cited from earlier work
facial blood flow [4] = details: rat, trigeminal ganglion stimulation (Escott et al. 1995); cited from earlier work
[5] = read-out: Human CGRP receptor binding Ki
[6] = table of Examples 32-37, read-out: Ki

T1 sequence (Q16602 23-461): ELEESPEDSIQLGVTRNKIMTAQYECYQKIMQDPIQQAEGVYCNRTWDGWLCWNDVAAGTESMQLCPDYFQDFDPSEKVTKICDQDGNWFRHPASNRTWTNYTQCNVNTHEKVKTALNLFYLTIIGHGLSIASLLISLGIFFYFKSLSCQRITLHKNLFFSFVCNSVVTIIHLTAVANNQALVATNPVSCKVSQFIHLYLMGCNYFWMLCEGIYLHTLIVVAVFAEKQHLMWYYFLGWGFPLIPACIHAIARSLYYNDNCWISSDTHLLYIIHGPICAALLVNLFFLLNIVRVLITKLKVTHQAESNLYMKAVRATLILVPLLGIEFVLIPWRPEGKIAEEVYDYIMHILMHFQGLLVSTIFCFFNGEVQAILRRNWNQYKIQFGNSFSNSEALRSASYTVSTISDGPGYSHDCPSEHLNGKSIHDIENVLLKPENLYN
T1 sequence (O60894 27-148): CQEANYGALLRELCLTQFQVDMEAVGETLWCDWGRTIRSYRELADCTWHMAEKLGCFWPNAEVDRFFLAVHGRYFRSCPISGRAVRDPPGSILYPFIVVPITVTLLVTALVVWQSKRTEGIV

In the case of `CC(c1cc(F)cc(F)c1)N(Cc1cnc2cc3c(cc2c1)C[C@@]1(C3)C(=O)Nc2ncccc21)C(=O)C1CCOCC1` (stereo in doubt) [Example 1, N-[(1R)-1-(3,5-Difluorophenyl)ethyl]-N-{[(7S)-2′-oxo-1′,2′,6,8-tetrahydrospiro-[cyclopenta[g]quinoline-7,3′-pyrrolo[2,3-b]pyridin]-3-yl]methyl}tetrahydro-2H-pyran-4-carboxamide], the Ki (Human CGRP receptor; [5]) is reported as 0.05 nM.
For `NCCCC[C@H](NC(=O)[C@@H](Cc1cc(Br)c(O)c(Br)c1)NC(=O)N1CCC(N2Cc3ccccc3NC2=O)CC1)C(=O)N1CCN(c2ccncc2)CC1` [BIBN4096BS], the “efficacy in treating acute attacks of migraine” value [1] is listed as “effective in treating acute attacks of migraine”, the “prevention of headache induced by CGRP infusion” value [2] is listed as “able to prevent headache induced by CGRP infusion” and the “effect on increase in facial blood flow” value (facial blood flow [3]) is listed as “blocked”.
Molecule `CCOC(=O)CN(Cc1ccccc1)C(=O)c1cnc2cc3c(cc2c1)C[C@@]1(C3)C(=O)Nc2ncccc21` [Example 2, Ethyl(benzyl{[(7S)-2′-oxo-1′,2′,6,8-tetrahydrospiro[cyclopenta[g]quinoline-7,3′-pyrrolo[2,3-b]pyridin]-3-yl]carbonyl}amino)acetate] has a Ki (Human CGRP receptor; [5]) of 60 nM.
Molecule `CC(C)(C)OC(=O)[C@H](NC(=O)c1cnc2cc3c(cc2c1)C[C@@]1(C3)C(=O)Nc2ncccc21)c1ccccc1` [Example 33] has a Ki (Human CGRP receptor; [6]) of 120 nM.
`CC(C)(C)OC(=O)[C@@H](NC(=O)c1cnc2cc3c(cc2c1)C[C@@]1(C3)C(=O)Nc2ncccc21)c1ccccc1` [Example 34] showed a Ki (Human CGRP receptor; [6]) of 140 nM.
`CC(C)(C)OC(=O)CC(NC(=O)c1cnc2cc3c(cc2c1)C[C@@]1(C3)C(=O)Nc2ncccc21)c1ccccc1` (stereo partly shown) [Example 36] showed a Ki (Human CGRP receptor; [6]) of 76 nM.
For “CGRP (8-37): a peptide CGRP antagonist; fragment of CGRP that lacks seven N-terminal amino acid residues (VTHRLAGLLSRSGGVVKNNFVPTNVGSKAF; ends and bridges not checked; UniProt P06881 90-119, looked up, fragment)”, the “effect on increase in diameter of the middle meningeal artery” value (middle meningeal artery) is given as “blocked” and the “effect on increased facial blood flow” value (facial blood flow [4]) is given as “inhibited”.
